Source: US20040219202A1, “Pharmaceutical composition comprising lipids comprising a polar and a nonpolar moiety” (priority 2001, published 2004)
“Also recorded” adds a separate entry of the source.

What was measured:
Assay type in all cases: cell-based
[1] = system: COS-7 cells; test: Transfection of COS-7 cells with LMDs (liposome:mu:DNA), β-galactosidase reporter assay; details: LMDs of pure DOTAP or DOTAP-analogue liposomes, FIG. 20
Protocol: (§1) Purity of the lipids was checked by TLC or HPLC. All lipids were stored as stock solutions in anhydrous CH2Cl2, at concentrations of either 5 mg/ml or 10 mg/ml, at −80° C., under Ar. In order to prepare cationic liposomes, lipids were added to a round-bottomed flask, via syringe, under Ar, and further freshly distilled CH2Cl2 was added, if necessary, to give a concentration of around 2.5 mg/ml. Then, 4 mM HEPES pH 7.0 (1 ml) was added, and the biphasic system was swirled to mix. A liposomal suspension was created by removing the organic solvent under reduced pressure at 25° C., followed by sonication for 2-5 min. in a water bath sonicator. Doubly-distilled water was added, if necessary, to return the total volume to 1 ml. All liposomal solutions were prepared at a final concentration of 5 mg/ml. The pH of the liposomal suspension was checked by pH Boy (Camlab Ltd., Over, Cambridgeshire, UK) and adjusted to pH 7.0±0.1 with concentrated aqueous solutions of HCl and NaOH.
(§2) Liposomes were extruded (Extruder, Northern Upids, Inc., Vancouver, BC, Canada) by passing through two 100 nm polycarbonate filters (Isopore™ Membrane Filters, Millipore (UK) Ltd., Watford, Hertfordshire, UK) ten times. For each preparation, the size distribution of liposomes was measured by photon correlation spectroscopy (PCS) (Coulter® N4 Plus Submicron Particle Sizer, Beckman Coulter, High Wycombe, Buckinghamshire, UK). For phospholipid-containing liposomes, phospholipid concentrations were checked by the Stewart assay.^23 In each case, a final lipid concentration of 4.7±0.1 mg/ml was observed. For non-phospholipid containing liposomes, lipid loss was also inevitable on extrusion. For all fast-extruding liposomal suspensions, total lipid concentration was assumed to be 4.7 mg/ml. For slower extrusions, total lipid concentrations were assumed to be 4.3 mg/ml. Very slowly extruding liposomes were extruded three times only and assumed to be 4.7 mg/ml.
(§3) Plasmid DNA containing the β-galactosidase gene (pNGVL1-nt-beta-gal; 7.53 kbp) was stored as frozen aliquots at −80° C., at a concentration of 1.2 mg/ml; μ (mu) peptide (adenoviral core peptide [H2N-Met-Arg-Arg-Ala-His-His-Arg-Arg-Arg-Arg-Ala-Ser-His-Arg-Arg-Met-Arg-Gly-Gly-CO2H]) was synthesised as described previously,^7 and maintained at 4° C. in aliquots of 1 mg/ml. Mu-DNA complexes were made by adding plasmid DNA to mu in 4 mM HEPES at a ratio of 1:0.6 (w/w) with fast vortexing. LMDs were prepared by complexing mu-DNA particles with cationic liposomes (as prepared above) in a ratio of 1:12 (w/w), such that all LMDs for all formulations were substantially cationic. For each preparation, the size distribution of LMDs was measured by PCS.
COS-7 cells were maintained in DMEM/10% FCS/1% penicillin-streptomycin (Gibco™) at 37° C./5% CO2 in a humidified atmosphere. Twenty-four hours prior to transfection, 10 000 cells per well were seeded in 48-well microtitre plates (Coming Costar) in 500 μl medium. Plasmid DNA and Transfast™ controls were prepared as above. 5 μl (0.5 μg DNA) of LMD formulation was added to each well. All experiments were performed in quadruplicate. The plate was swirled for 30 s, and incubated for 1 h at 37° C. Medium was then removed, and 500 μl of fresh medium was added. The cells were incubated at 37° C. for a further 24 h.
Medium was aspirated from the wells and the cell layer was washed with phosphate buffered saline (PBS) (Gibco™). The cells of each well were lysed in 150 μl lysis reagent (prepared according to the supplier's protocol; β-Gal Reporter Gene Assay, Roche Diagnostics GmbH, D-68305 Mannheim, Germany) at room temperature for 30 min. After lysis, […], 50 μl and 20 μl, of each cell suspension were used for the determination of β-galactosidase activity and for the determination of total cellular protein (to normalise results), respectively.
In the β-gal assay, 100 μl of the substrate reagent was added to 50 μl of the cell suspension in a white 96-well microplate (Coming Costar). […]

[2] = system: Panc-1 cells; test: Transfection of Panc-1 cells with LMDs (liposome:mu:DNA), β-galactosidase reporter assay; details: LMDs composed entirely of DOTAP or DOTAP-analogue liposomes, FIG. 19
Protocol: as §1, §2, §3
Panc-1 cells were maintained in RPMI/10% FCS/1% penicillin-streptomycin (Gibco™, Invitrogen Corporation, Paisley, Scotland, UK) at 37° C./5% CO2 in a humidified atmosphere. Twenty-four hours prior to transfection, 30 000 cells per well were seeded in 48 well microtitre plates (Corning Costar, Merck Ltd., Lutterworth, Leicestershire, UK) in 500 μl medium. As a control, plasmid DNA (0.5 μg in 200 μl medium) was added to a well. As a positive control, 1.5 μl Transfast™ (Promega Corporation, Madison, Wis., USA; prepared according to the supplier's protocol) in 200 μl medium was complexed with plasmid DNA (0.5 μg) and added to a well. 5 μl (0.5 μg DNA) of LMD formulation was added to each well. All experiments were performed in quadruplicate. The plate was swirled for 30 s, and incubated for 1 h at 37° C. Medium was then removed, and 500 μl of fresh medium was added. The cells were incubated at 37° C. for a further 24 h.
Medium was aspirated from the wells and the cell layer was washed with phosphate buffered saline (PBS) (Gibco™). The cells of each well were lysed in 150 μl lysis reagent (prepared according to the supplier's protocol; β-Gal Reporter Gene Assay, Roche Diagnostics GmbH, D-68305 Mannheim, Germany) at room temperature for 30 min. […]

[3] = system: Panc-1 and COS-7 cells; test: In vitro transfection of LMDs, overall statements without a single cell line; details: cell line not stated or across Panc-1 and COS-7 cells
Protocol: as §1, with “The pH of the liposomal suspension was checked by pH Boy (Camlab Ltd., Over, Cambridgeshire, UK) and adjusted to pH 7.0±0.1 with concentrated aqueous solutions of HCl and NaOH.” left out
Liposomes were extruded (Extruder, Northern Upids, Inc., Vancouver, BC, Canada) by passing through two 100 nm polycarbonate filters (Isopore™ Membrane Filters, Millipore (UK) Ltd., Watford, Hertfordshire, UK) ten times. For each preparation, the size distribution of liposomes was measured by photon correlation spectroscopy (PCS) (Coulter® N4 Plus Submicron Particle Sizer, Beckman Coulter, High Wycombe, Buckinghamshire, UK). […]

With CCCCCCCC/C=C\CCCCCCCC(=O)OCC(C[N+](C)(C)C)OC(=O)CCCCCCC/C=C\CCCCCCCC (stereo not drawn) [DOTAP] the “Transfection (β-galactosidase activity)” value [1] was “transfect similarly”, the “Transfection (β-galactosidase activity)” value [2] was “transfect less well than the positive control Transfast” and the “In vitro transfection, overall statement” value [3] was “transfect worse than CDAN:DOPE, 1:1 liposomes; also recorded: generally poor”.
